Data as given in ChEMBL document CHEMBL5113403, “Design, synthesis, and biological evaluation of novel pyrazolo [3,4-d]pyrimidine derivatives as potent PLK4 inhibitors for the treatment of TRIM37-amplified breast cancer” (Eur J Med Chem, 2022).

Tests used:
CYP3A4 = CYP3A4 (Homo sapiens, UniProt P08684); test: Inhibition of CYP3A4 in human liver microsomes at 10 uM preincubated for 10 mins followed by addition of NADPH-regenerating system and measured after 15 mins by LC-MS/MS analysis relative to control; format: ADME, Microsome; settings: time 25 min
MCF7 [1] = test: Induction of cell cycle arrest in human MCF7 cells assessed as greater G1 phase cells at 1 uM measured after 48 hrs by flow cytometry analysis (reference value: 0.78 %); format: functional
MCF7 [2] = test: Induction of cell cycle arrest in human MCF7 cells assessed as decrease in G1 phase cells at 0.25 uM measured after 48 hrs by flow cytometry analysis (reference value: 56.9 %); format: functional; parameters: scale not given: the % may be the effect or the level left
[3] = Plasma stability in human assessed as compound remaining at 100 uM measured after 60 mins by LC-MS/MS analysis relative to control; format: ADME, cell-free; settings: read-out: Stability
[4] = Metabolic stability in human liver microsomes assessed as compound remaining at 100 uM measured after 60 mins in the presence of NADPH by LC-MS/MS analysis; format: ADME, Microsome; settings: read-out: Stability
MCF7 [5] = test: Induction of apoptosis in human MCF7 cells assessed as viable cells at 0.10 uM incubated for 48 hrs by Annexin-V-FITC/PI staining based flow cytometric analysis (reference value: 97 %); format: functional; settings: dose 0.1 µM
MCF7 [6] = test: Induction of apoptosis in human MCF7 cells assessed as early apoptotic cells at 0.50 uM incubated for 48 hrs by Annexin-V-FITC/PI staining based flow cytometric analysis (reference value: 2.83 %); format: functional; settings: dose 0.5 µM
[7] = AUCinfinity in Sprague-Dawley rat at 10 mg/kg, po by LC-MS/MS analysis; format: ADME, organism-based; parameters: time infinity, dose 10 mg/kg, route po; settings: in vivo
MCF7 [8] = test: Induction of cell cycle arrest in human MCF7 cells assessed as decrease in G1 phase cells at 0.50 uM measured after 48 hrs by flow cytometry analysis (reference value: 56.9 %); format: functional; parameters: scale not given: the % may be the effect or the level left; settings: dose 0.5 µM
MCF7 [9] = test: Induction of cell cycle arrest in human MCF7 cells assessed as S phase cells at 0.10 uM measured after 48 hrs by flow cytometry analysis (reference value: 9.31 %); format: functional; settings: dose 0.1 µM
[10] = AUClast in Sprague-Dawley rat at 10 mg/kg, po by LC-MS/MS analysis; format: ADME, organism-based; parameters: time 0 - last, dose 10 mg/kg, route po; settings: in vivo
MCF7 [11] = test: Antiproliferative activity against human MCF7 cells assessed as cell growth inhibition incubated for 5 days by MTT assay; format: functional, cell-based; settings: MCF7, 120 h
MCF7 [12] = test: Induction of apoptosis in human MCF7 cells assessed as late apoptotic cells at 1 uM incubated for 48 hrs by Annexin-V-FITC/PI staining based flow cytometric analysis (reference value: 0.019 %); format: functional
MDA-MB-231 = test: Antiproliferative activity against human MDA-MB-231 cells assessed as cell growth inhibition incubated for 5 days by MTT assay; format: functional, cell-based; settings: MDA-MB-231, 120 h
MCF7 [13] = test: Induction of apoptosis in human MCF7 cells assessed as viable cells at 0.25 uM incubated for 48 hrs by Annexin-V-FITC/PI staining based flow cytometric analysis (reference value: 97 %); format: functional
[14] = Metabolic stability in human liver microsomes assessed as compound remaining at 100 uM measured after 60 mins by LC-MS/MS analysis; format: ADME, Microsome; settings: read-out: Stability
[15] = Cmax in Sprague-Dawley rat at 10 mg/kg, po by LC-MS/MS analysis; format: ADME, organism-based; parameters: dose 10 mg/kg, route po; settings: in vivo
MCF7 [16] = test: Induction of apoptosis in human MCF7 cells assessed as viable cells at 0.50 uM incubated for 48 hrs by Annexin-V-FITC/PI staining based flow cytometric analysis (reference value: 97 %); format: functional; settings: dose 0.5 µM
MCF7 [17] = test: Induction of apoptosis in human MCF7 cells assessed as total apoptotic cells at 1 uM incubated for 48 hrs by Annexin-V-FITC/PI staining based flow cytometric analysis relative to control; format: functional
[18] = Clearance in Sprague-Dawley rat at 3 mg/kg, iv by LC-MS/MS analysis; format: ADME, organism-based; settings: in vivo
[19] = Plasma stability in human assessed as half-life at 100 uM measured upto 120 mins by LC-MS/MS analysis relative to control; format: ADME, cell-free
CYP2C9 = CYP2C9 (Homo sapiens, UniProt P11712); test: Inhibition of CYP2C9 in human liver microsomes at 10 uM preincubated for 10 mins followed by addition of NADPH-regenerating system and measured after 15 mins by LC-MS/MS analysis relative to control; format: ADME, Microsome; settings: time 25 min
[20] = Tmax in Sprague-Dawley rat at 10 mg/kg, po by LC-MS/MS analysis; format: ADME, organism-based; settings: in vivo
MCF7 [21] = test: Induction of cell cycle arrest in human MCF7 cells assessed as less G1 phase cells at 0.10 uM measured after 48 hrs by flow cytometry analysis (reference value: 0.44 %); format: functional; settings: dose 0.1 µM
MCF7 [22] = test: Induction of apoptosis in human MCF7 cells assessed as total apoptotic cells at 0.50 uM incubated for 48 hrs by Annexin-V-FITC/PI staining based flow cytometric analysis relative to control; format: functional; settings: dose 0.5 µM
MCF7 [23] = test: Induction of apoptosis in human MCF7 cells assessed as late apoptotic cells at 2.5 uM incubated for 48 hrs by Annexin-V-FITC/PI staining based flow cytometric analysis (reference value: 0.019 %); format: functional
[24] = Half-life in Sprague-Dawley rat at 10 mg/kg, po by LC-MS/MS analysis; format: ADME, organism-based; settings: in vivo
MCF7 [25] = test: Induction of cell cycle arrest in human MCF7 cells assessed as less G1 phase cells at 2.5 uM measured after 48 hrs by flow cytometry analysis (reference value: 0.44 %); format: functional
[26] = Half-life in Sprague-Dawley rat at 3 mg/kg, iv by LC-MS/MS analysis; format: ADME, organism-based; settings: in vivo
MCF7 [27] = test: Induction of cell cycle arrest in human MCF7 cells assessed as less G1 phase cells at 0.25 uM measured after 48 hrs by flow cytometry analysis (reference value: 0.44 %); format: functional
MCF7 [28] = test: Induction of cell cycle arrest in human MCF7 cells assessed as G2 phase cells at 2.5 uM measured after 48 hrs by flow cytometry analysis (reference value: 31.8 %); format: functional
MCF7 [29] = test: Induction of apoptosis in human MCF7 cells assessed as necrotic cells at 0.25 uM incubated for 48 hrs by Annexin-V-FITC/PI staining based flow cytometric analysis (reference value: 0.18 %); format: functional
MCF7 [30] = test: Induction of cell cycle arrest in human MCF7 cells assessed as decrease in G1 phase cells at 1 uM measured after 48 hrs by flow cytometry analysis (reference value: 56.9 %); format: functional; parameters: scale not given: the % may be the effect or the level left
MCF7 [31] = test: Induction of apoptosis in human MCF7 cells assessed as late apoptotic cells at 0.50 uM incubated for 48 hrs by Annexin-V-FITC/PI staining based flow cytometric analysis (reference value: 0.019 %); format: functional; settings: dose 0.5 µM
MCF7 [32] = test: Induction of cell cycle arrest in human MCF7 cells assessed as G2 phase cells at 0.50 uM measured after 48 hrs by flow cytometry analysis (reference value: 31.8 %); format: functional; settings: dose 0.5 µM
MCF7 [33] = test: Induction of cell cycle arrest in human MCF7 cells assessed as greater G1 phase cells at 0.10 uM measured after 48 hrs by flow cytometry analysis (reference value: 0.78 %); format: functional; settings: dose 0.1 µM
MCF7 [34] = test: Induction of cell cycle arrest in human MCF7 cells assessed as S phase cells at 0.50 uM measured after 48 hrs by flow cytometry analysis (reference value: 9.31 %); format: functional; settings: dose 0.5 µM

Chain of CYP3A4 (P08684 whole entry): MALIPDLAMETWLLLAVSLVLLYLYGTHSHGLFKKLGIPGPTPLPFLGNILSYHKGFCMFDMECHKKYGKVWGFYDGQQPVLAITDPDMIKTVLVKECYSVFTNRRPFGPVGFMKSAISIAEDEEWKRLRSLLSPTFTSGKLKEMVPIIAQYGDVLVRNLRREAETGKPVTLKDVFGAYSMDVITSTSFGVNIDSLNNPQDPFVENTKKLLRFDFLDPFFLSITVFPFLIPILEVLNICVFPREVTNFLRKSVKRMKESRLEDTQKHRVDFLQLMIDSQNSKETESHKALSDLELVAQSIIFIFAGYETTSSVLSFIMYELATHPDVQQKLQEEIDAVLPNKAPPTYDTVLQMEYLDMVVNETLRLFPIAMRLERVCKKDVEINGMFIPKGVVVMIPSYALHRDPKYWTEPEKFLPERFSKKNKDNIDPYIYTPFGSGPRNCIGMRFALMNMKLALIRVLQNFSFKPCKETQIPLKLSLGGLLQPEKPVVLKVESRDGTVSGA
Chain of CYP2C9 (P11712 whole entry): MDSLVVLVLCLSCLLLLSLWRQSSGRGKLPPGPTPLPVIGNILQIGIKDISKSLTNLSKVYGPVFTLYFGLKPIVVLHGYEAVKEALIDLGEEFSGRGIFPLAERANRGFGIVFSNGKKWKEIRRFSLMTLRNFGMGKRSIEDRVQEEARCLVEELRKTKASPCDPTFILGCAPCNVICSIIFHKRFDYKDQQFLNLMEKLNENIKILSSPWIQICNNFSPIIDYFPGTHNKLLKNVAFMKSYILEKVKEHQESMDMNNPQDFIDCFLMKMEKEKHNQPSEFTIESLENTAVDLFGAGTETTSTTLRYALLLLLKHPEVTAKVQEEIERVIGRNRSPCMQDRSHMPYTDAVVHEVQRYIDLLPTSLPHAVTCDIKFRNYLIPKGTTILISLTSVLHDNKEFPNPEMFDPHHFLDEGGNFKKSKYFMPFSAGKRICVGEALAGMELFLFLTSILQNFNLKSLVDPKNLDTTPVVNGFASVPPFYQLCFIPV

inhibition at 0.25 h, 10 µM (CYP3A4): 0%
remaining at 1 h, 100 µM [3]: 99.2%
remaining at 1 h, 100 µM [4]: 25.2%
AUC(0-inf) [7]: 301 ng·h/mL
AUC(0-t) [10]: 286 ng·h/mL
IC50 (MCF7 [11]): 360 nM
IC50 (MDA-MB-231): 2880 nM
remaining at 1 h, 100 µM [14]: 106%
Cmax [15]: 81.1 ng/mL
clearance [18]: 47.2 mL/min/kg
half-life at 100 µM [19]: > 289 min
inhibition at 0.25 h, 10 µM (CYP2C9): 25.4%
Tmax [20]: 1.33 h
half-life [24]: 105 min
half-life [26]: 63 min
SMILES: Cc1cc(Nc2nc(NCc3ccc(F)cc3F)nc3c2cnn3C2CCOCC2)n[nH]1
Activity (MCF7 [1]): 0.61%
Activity (MCF7 [2]): 43.6%
Activity (MCF7 [5]): 74.9%
Activity (MCF7 [6]): 59.7%
Activity (MCF7 [8]): 36.2%
Activity (MCF7 [9]): 7.46%
Activity (MCF7 [12]): 6.84%
Activity (MCF7 [13]): 67.1%
Activity (MCF7 [16]): 32.2%
Activity (MCF7 [17]): 71.84%
Activity (MCF7 [21]): 0.37%
Activity (MCF7 [22]): 67.28%
Activity (MCF7 [23]): 10.8%
Activity (MCF7 [25]): 0.39%
Activity (MCF7 [27]): 8.49%
Activity (MCF7 [28]): 67.6%
Activity (MCF7 [29]): 1.97%
Activity (MCF7 [30]): 21.5%
Activity (MCF7 [31]): 7.58%
Activity (MCF7 [32]): 44.6%
Activity (MCF7 [33]): 0.62%
Activity (MCF7 [34]): 16.9%
